Target: Bek (Homo sapiens, UniProt P21802)
Test: Inhibitory activity against Bek-autophosphorylation using ELISA method in OCUM-2MD3 cells
Format: cell-based
Settings: 1 hr with compound, read-out: IC50 (concentration necessary for inhibiting 50% of Bek-phosphorylation)
How it was run: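 Sandwich ELISA (anti-phosphotyrosine capture, anti-Bek detection, peroxidase, 450 nm) measured Bek autophosphorylation in OCUM-2MD3 lysates after 1 hr compound treatment at 37° C in 0.1% serum medium. IC50 derived by scaling between no-drug (100%) and excess positive control at 1000 nM (0%).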

Chain of Bek (P21802 431-767 limits assumed): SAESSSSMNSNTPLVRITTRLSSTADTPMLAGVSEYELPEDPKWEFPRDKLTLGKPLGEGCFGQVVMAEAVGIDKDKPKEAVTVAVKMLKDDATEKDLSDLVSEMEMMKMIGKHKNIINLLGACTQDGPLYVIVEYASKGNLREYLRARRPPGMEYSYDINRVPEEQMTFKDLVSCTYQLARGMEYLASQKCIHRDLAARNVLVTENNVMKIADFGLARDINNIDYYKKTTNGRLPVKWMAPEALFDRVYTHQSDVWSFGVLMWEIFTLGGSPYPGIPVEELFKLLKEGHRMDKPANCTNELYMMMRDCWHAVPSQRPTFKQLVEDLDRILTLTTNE

| Compound | IC50 |
| --- | --- |
| COc1cc2c(Oc3ccc(Nc4ccc(C(C)C)cc4)cc3)ccnc2cc1OCC(=O)N1CCOCC1 [Compound 229, 2-{4-[4-(4-Isopropyl-phenylamino)-phenoxy]-6-methoxy-quinolin-7-yloxy}-1-morpholin-4-yl-ethanone] | 156 nM |
| COc1cc2c(Oc3ccc(NC(=O)NCCC(C)(C)C)c(F)c3)ccnc2cc1OC(=O)N1CCC(N2CCCCC2)CC1 [Compound 230, 4-{4-[3-(3,3-Dimethyl-butyl)-ureido]-3-fluoro-phenoxy}-6-methoxy-quinolin-7-yl [1,4′]bipiperidineyl-1′-carboxylate] | 32.1 nM |
| COc1cc2c(Oc3ccc(Nc4ccc(C(C)(C)C)cc4)cc3)ccnc2cc1OCCCN1CC(C)OC(C)C1 (centres unmarked) [Compound 232, (4-Tert-butyl-phenyl)-(4-{7-[3-(2,6-dimethyl-morpholin-4-yl)-propoxy]-6-methoxy-quinolin-4-yloxy}-phenyl)-amine] | 103 nM |
| COc1cc2c(Oc3ccc(Nc4ccc(C(C)(C)C)cc4)cc3)ccnc2cc1OCCCN1CC(C)CC(C)C1 (centres unmarked) [Compound 233, (4-Tert-butyl-phenyl)-(4-{7-[3-(3,5-dimethyl-piperidin-1-yl)-propoxy]-6-methoxy-quinolin-4-yloxy}-phenyl)-amine] | 371 nM |
| COc1cc2c(Oc3ccc(Nc4ccc(C(C)(C)C)cc4)cc3)ccnc2cc1OCCN1CC(C)OC(C)C1 (centres unmarked) [Compound 238, (4-Tert-butyl-phenyl)-(4-{7-[2-(2,6-dimethyl-morpholin-4-yl)-ethoxy]-6-methoxy-quinolin-4-yloxy}-phenyl)-amine] | 47.2 nM |
| COc1cc2c(Oc3ccc(Nc4ccc(C(C)(C)C)cc4)cc3)ccnc2cc1OCCN1CC(C)CC(C)C1 (centres unmarked) [Compound 239, (4-Tert-butyl-phenyl)-(4-{7-[2-(3,5-dimethyl-piperidin-1-yl)-ethoxy]-6-methoxy-quinolin-4-yloxy}-phenyl)-amine] | 895 nM |
| COc1cc2c(Oc3ccc(Nc4ccc(C(C)(C)C)cc4)cc3)ccnc2cc1OCCN1CCC(N2CCCCC2)CC1 [Compound 242, {4-[7-(2-[1,4′]Bipiperidineyl-1′-yl-ethoxy)-6-methoxy-quinolin-4-yloxy]-phenyl}-(4-tert-butyl-phenyl)-amine] | 401 nM |
| COc1cc2c(Oc3ccc(NC(=O)NCCC(C)(C)C)cc3)ccnc2cc1OCCCN1CC(C)OC(C)C1 (centres unmarked) [Compound 244, 1-(3,3-Dimethyl-butyl)-3-(4-{7-[3-(2,6-dimethyl-morpholin-4-yl)-propoxy]-6-methoxy-quinolin-4-yloxy}-phenyl)-urea] | < 10 nM |
| COc1cc2c(Oc3ccc(NC(=O)NCCC(C)(C)C)cc3)ccnc2cc1OCCCN1CC(C)CC(C)C1 (centres unmarked) [Compound 245, 1-(3,3-Dimethyl-butyl)-3-(4-{7-[3-(3,5-dimethyl-piperidin-1-yl)-propoxy]-6-methoxy-quinolin-4-yloxy}-phenyl)-urea] | 16.5 nM |
| COc1cc2c(Oc3ccc(NC(=O)NCCC(C)(C)C)cc3)ccnc2cc1OCCCN1CCC(Cc2ccccc2)CC1 [Compound 247, 1-(4-{7-[3-(4-Benzyl-piperidin-1-yl)-propoxy]-6-methoxy-quinolin-4-yloxy}-phenyl)-3-(3,3-dimethyl-butyl)-urea] | 81.9 nM |
| COc1cc2c(Oc3ccc(NC(=O)NCCC(C)(C)C)cc3)ccnc2cc1OCCCN1CCC(N2CCCC2)CC1 [Compound 249, 1-(3,3-Dimethyl-butyl)-3-(4-{6-methoxy-7-[3-(4-pyrrolidin-1-yl-piperidin-1-yl)-propoxy]-quinolin-4-yloxy}-phenyl)-urea] | < 10 nM |
| COc1cc2c(Oc3ccc(NC(=O)NCCC(C)(C)C)cc3)ccnc2cc1OCC(O)CN1CC(C)OC(C)C1 (centres unmarked) [Compound 250, 1-(3,3-Dimethyl-butyl)-3-(4-{7-[3-(2,6-dimethyl-morpholin-4-yl)-2-hydroxy-propoxy]-6-methoxy-quinolin-4-yloxy}-phenyl)-urea] | < 10 nM |
| COc1cc2c(Oc3ccc(NC(=O)NCCC(C)(C)C)cc3)ccnc2cc1OCC(O)CN1CC(C)CC(C)C1 (centres unmarked) [Compound 251, 1-(3,3-Dimethyl-butyl)-3-(4-{7-[3-(3,5-dimethyl-piperidin-1-yl)-2-hydroxy-propoxy]-6-methoxy-quinolin-4-yloxy}-phenyl)-urea] | 20.7 nM |
| COc1cc2c(Oc3ccc(NC(=O)NCCC(C)(C)C)cc3)ccnc2cc1OCC(O)CN1CCC(c2ccccc2)CC1 (centres unmarked) [Compound 252, 1-(3,3-Dimethyl-butyl)-3-(4-{7-[2-hydroxy-3-(4-phenyl-piperidin-1-yl)-propoxy]-6-methoxy-quinolin-4-yloxy}-phenyl)-urea] | 42.6 nM |
| COc1cc2c(Oc3ccc(Nc4ccc(C(C)(C)C)cc4)cc3)ccnc2cc1OCC(O)CN1CC(C)OC(C)C1 (centres unmarked) [Compound 253, 1-{4-[4-(4-Tert-butyl-phenylamino)-phenoxy]-6-methoxy-quinolin-7-yloxy}-3-(2,6-dimethyl-morpholin-4-yl)-propan-2-ol] | 28.5 nM |
| COc1cc2c(Oc3ccc(Nc4ccc(C(C)(C)C)cc4)cc3)ccnc2cc1OCC(O)CN1CC(C)CC(C)C1 (centres unmarked) [Compound 254, 1-{4-[4-(4-Tert-butyl-phenylamino)-phenoxy]-6-methoxy-quinolin-7-yloxy}-3-(3,5-dimethyl-piperidin-1-yl)-propan-2-ol] | 94.2 nM |

Further compounds by falling IC50, results first:

| IC50 | Compound |
| --- | --- |
| 342 nM | COc1cc2c(Oc3ccc(Nc4ccc(C(C)(C)C)cc4)cc3)ccnc2cc1OCCN1CCC(N2CCCC2)CC1 [Compound 243, (4-Tert-butyl-phenyl)-(4-{6-methoxy-7-[2-(4-pyrrolidin-1-yl-piperidin-1-yl)-ethoxy]-quinolin-4-yloxy}-phenyl)-amine] |
| 269 nM | COc1cc2c(Oc3ccc(Nc4ccc(C(C)(C)C)cc4)cc3)ccnc2cc1OCCCN1CCC(N2CCCCC2)CC1 [Compound 236, {4-[7-(3-[1,4′]Bipiperidineyl-1 ′-yl-propoxy)-6-methoxy-quinolin-4-yloxy]-phenyl}-(4-tert-butyl-phenyl)-amine] |
| 207 nM | COc1cc2c(Oc3ccc(Nc4ccc(C(C)(C)C)cc4)cc3)ccnc2cc1OCCCN1CCC(N2CCCC2)CC1 [Compound 237, (4-Tert-butyl-phenyl)-(4-{6-methoxy-7-[3-(4-pyrrolidin-1-yl-piperidin-1-yl)-propoxy]-quinolin-4-yloxy}-phenyl)-amine] |
| 113 nM | COc1cc2nccc(Oc3ccc(NC(=O)NCCC(C)(C)C)cc3F)c2cc1OCCCN1CC(C)OC(C)C1 (centres unmarked) [Compound 231, 1-(3,3-Dimethyl-butyl)-3-(4-{6-[3-(2,6-dimethyl-morpholin-4-yl)-propoxy]-7-methoxy-quinolin-4-yloxy}-3-fluoro-phenyl)-urea] |
| 110 nM | COc1cc2c(Oc3ccc(Nc4ccc(C(C)(C)C)cc4)cc3)ccnc2cc1OCC(O)CN1CCC(N2CCCCC2)CC1 (centres unmarked) [Compound 258, 1-[1,4′]Bipiperidineyl-1′-yl-3-{4-[4-(4-tert-butyl-phenylamino)-phenoxy]-6-methoxy-quinolin-7-yloxy}-propan-2-ol] |
| 30.9 nM | COc1cc2c(Oc3ccc(NC(=O)NCCC(C)(C)C)cc3)ccnc2cc1OCCCN1CCC(c2ccccc2)CC1 [Compound 246, 1-(3,3-Dimethyl-butyl)-3-(4-{6-methoxy-7-[3-(4-phenyl-piperidin-1-yl)-propoxy]-quinolin-4-yloxy}-phenyl)-urea] |
| 12.6 nM | COc1cc2c(Oc3ccc(NC(=O)NCCC(C)(C)C)cc3)ccnc2cc1OCCCN1CCC(N2CCCCC2)CC1 [Compound 248, 1-{4-[7-(3-[1,4′]Bipiperidinyl-1′-yl-propoxy)-6-methoxy-quinolin-4-yloxy]-phenyl}-3-(3,3-dimethyl-butyl)-urea] |

Source: patent publication US7495104B2, “Quinoline or quinazoline derivatives inhibiting auto-phosphorylation of fibroblast growth factor receptors” (Kirin Beer Kabushiki Kaisha, priority 2001, dated 2009)
